Data from patent publication US20250345332A1, “APROCITENTAN FOR THE TREATMENT OF HYPERTENSION” (IDORSIA PHARMACEUTICALS LTD, priority 2022, published 2025).
“Also recorded” adds a separate entry of the source. Read-outs that look alike come from different tables or passages of the source.

What was measured:
[1] = test system: patients with resistant hypertension; test: PRECISION phase 3 trial: safety assessments; type: in vivo, human; conditions: for tolerability: 12.5 mg and 25 mg, up to 48 weeks; for treatment-emergent adverse events (TEAEs), patients: 4-week double-blind period, placebo 19.4%; for edema/fluid retention, patients: 4-week part 1, placebo 2.1%; for discontinuation from study treatment due to an adverse event: first 4 weeks double-blind, placebo 0.8%; for estimated plasma volume increase: placebo 0.51%
Description: (§1) A single, randomized study with three sequential treatment parts was designed. The study design addressed both the 4-week placebo-controlled efficacy of 12.5 and 25 mg aprocitentan (Part 1) and the durability of its effects in long-term active treatment with 25 mg aprocitentan for a further 32 weeks (Part 2) followed by a 12-week placebo-controlled withdrawal period with patients re-randomized to 25 mg or placebo (Part 3) (see for example Danaietash P et al; Identifying and treating resistant hypertension in PRECISION—a randomized long-term clinical trial with Aprocitentan. J Clin Hypertension 2022 (in press). Patients with uncontrolled BP (measured as unattended automated office BP) despite the use of three or more antihypertensive medications for at least 1 year were screened. They were switched to a single-tablet triple fixed combination antihypertensive therapy for at least 4 weeks before entering a single-blind placebo run-in period. The 4-week placebo run-in period further excluded placebo responders. The randomization period consisted of 3 sequential parts: • 1) a 4-week double-blind part with aprocitentan 12.5 mg, 25 mg, or placebo (1:1:1 ratio); • 2) a 32-week single-blind part with aprocitentan 25 mg; and • 3) a 12-week randomized withdrawal part with aprocitentan 25 mg or placebo (1:1 ratio).
(§2) • Part 1: Double-blind, randomized parallel-group and placebo-controlled and lasts for 4 weeks. Subjects received (1:1:1 ratio), 25 or 12.5 mg aprocitentan, or placebo. • Part 2: Single-blind and single-arm, lasts for 32 weeks. All subjects received aprocitentan 25 mg. • Part 3: Double-blind withdrawal. All subjects completing part 2 and entering part 3 are re-randomized (1:1 ratio) to either aprocitentan 25 mg or placebo.
Safety assessments include (treatment emergent) adverse events (TEAEs) including TEAEs leading to premature discontinuation of study treatment; adverse events of special interest (AESIs): hepatic disorders, anemia (or hemodilution), edema/fluid retention, and decompensation/aggravation of heart failure; treatment-emergent major adverse cardiovascular events (MACEs)/MACE-plus defined as cardiovascular death, non-fatal myocardial infarction (MI), or non-fatal stroke, or hear filure leading to hospitalization confirmed by the Central Adjudication Committee (CAC); as well as vital signs, body weight, clinical laboratory assessments, and 12-lead electrocardiograms.

[2] = test system: patients with resistant hypertension; test: PRECISION phase 3 trial: urine albumin-creatinine ratio (UACR); type: in vivo, human
Description: as §1, §2
In a population with difficult-to control hypertension (mean age of 62 years, obesity [69.3% of subjects], >50% with diabetes mellitus, 22% with CKD stage 3-4), evaluation of UACR is important. […] The geometric mean UACR at baseline was 26.6 mg/g in the overall population. At Week 4, placebo-corrected reductions in UACR of 30% and 34% with aprocitentan 12.5 mg and 25 mg were noted, respectively.

[3] = test system: subjects having essential hypertension; conditions: cited from earlier work
[4] = in comparison to corresponding alkylated derivatives; cited from earlier work
[5] = test system: patients with resistant hypertension; test: PRECISION phase 3 trial: ambulatory blood pressure monitoring (ABPM); type: in vivo, human; conditions: for 24 h ambulatory DBP, placebo-corrected decrease / 24 h ambulatory SBP, placebo-corrected decrease: end of part 1 (week 4)
Description: as §1
ABPM is performed over a 24-hour period with the Mobil-O-Graph NG device at baseline, and Weeks 4, 36, and 40. Systolic BP and diastolic BP are measured every 20 minutes from 06:00-23:00 and every 30 minutes from 23:00-06:00. Monitoring is initiated between 06:00 and 11:00.
as §2
Other secondary efficacy endpoints include • changes from baseline to Week 4 and from DB-WD baseline to Week 40 in mean trough sitting diastolic blood pressure (SiDBP) measured as uAOBP. • and changes in systolic/diastolic BP measured by ABPM, including changes from baseline to Week 4 of DB treatment in 24-h mean SBP and DBP, changes from baseline to Week 4 in daytime and night-time mean SBP and DBP, changes from DB-WD baseline (Week 36) to Week 40 in 24-h mean SBP and DBP, and changes from DB-WD baseline (Week 36) to Week 40 in daytime and night-time mean SBP and DBP.

[6] = test system: rat models of hypertension; conditions: cited from earlier work
[7] = preliminary data, subjects with SGLT-2 inhibitor plus standardized antihypertensive background therapy, small sample size
[8] = Black or African Americans, baseline to Week 4
[9] = part 3, after 4 weeks of withdrawal (week 40), aprocitentan 25 mg

For `NS(=O)(=O)Nc1ncnc(OCCOc2ncc(Br)cn2)c1-c1ccc(Br)cc1` [aprocitentan, {5-(4-bromo-phenyl)-6-[2-(5-bromo-pyrimidin-2-yloxy)-ethoxy]-pyrimidin-4-yl}-sulfamide], the tolerability [1] was “generally well tolerated”, the tolerability ([1]; listed as Aprocitentan) was “generally well tolerated” and the “treatment-emergent adverse events (TEAEs), patients” value ([1]; aprocitentan 12.5 mg) was 27.6%. For the same compound, the “edema/fluid retention, patients” value ([1]; aprocitentan 12.5 mg) was 9.1%, the “discontinuation from study treatment due to an adverse event” value ([1]; aprocitentan 12.5 mg) was 2.5% and the “estimated plasma volume increase” value ([1]; aprocitentan 12.5 mg, part 1) was 10.5%. For the same compound, the haemoglobin concentration change ([1]; aprocitentan 12.5 mg, part 1, placebo −0.4) was -8.0 g/L, the “treatment-emergent adverse events (TEAEs), patients” value ([1]; aprocitentan 25 mg) was 36.7% and the “edema/fluid retention, patients” value ([1]; aprocitentan 25 mg) was 18.4%. For the same compound, the “oedema or fluid retention, patients” value ([1]; aprocitentan 25 mg, 12-week part 3, placebo 1.3%) was 2.6%, the “oedema or fluid retention, patients” value ([1]; aprocitentan 25 mg, 32-week part 2) was 18.2% and the “discontinuation from study treatment due to an adverse event” value ([1]; aprocitentan 25 mg) was 2.0%. For the same compound, the “admission to hospital for heart failure, patients” value (“admission to hospital” below) ([1]; aprocitentan 25 mg, part 1 (two of 245)) was 0.8%, the “patients who discontinued due to oedema or fluid retention” value (“patients who discontinued due” for short) ([1]; aprocitentan 25 mg, part 1, of 245 patients) was “one” and the “estimated plasma volume increase” value ([1]; aprocitentan 25 mg, part 1) was 11.2%. The “admission to hospital” value ([1]; aprocitentan 25 mg, part 2 (six of 704)) was 0.9%, the “patients who discontinued due” value ([1]; aprocitentan 25 mg, part 2, of 704 patients) was “five” and the “admission to hospital” value ([1]; aprocitentan 25 mg, part 3 (two of 310), placebo 0.3%) was 0.6%. For the same compound, the “patients who discontinued due” value ([1]; aprocitentan 25 mg, part 3, of 310 patients) was “one”, the “patients who discontinued treatment due to edema/fluid retention” value ([1]; aprocitentan 25 mg, parts 1-3, <1%) was “seven” and the bodyweight ([1]; both aprocitentan doses, part 1, decrease with placebo) was “moderate increase”. The “serious edema/fluid retention adverse events” value ([1]; both on aprocitentan 25 mg, <1%) was “Two”, the “edema/fluid retention events mild to moderate in intensity” value ([1]; entire study duration) was greater than 95% and the “patients who developed edema/fluid retention at one time point” value ([1]; entire study duration) was “Approximately 30%”. For the same compound, the hepatotoxicity ([1]; in vivo) was “No signs”, the “NT-proBNP and MR-proANP” value ([1]; part 1, stabilisation in part 2, reversal in part 3) was “Slight increases” and the eGFR ([1]; part 1 versus placebo) was “decreased slightly”. The “decrease of hemoglobin value from baseline to week 36” value [1, 7] was “smaller decrease”, the “reduction in UACR” value ([2]; aprocitentan 12.5 mg, subjects with CKD stage 3-4) was −26% and the “reduction in UACR” value ([2]; aprocitentan 12.5 mg, subjects with baseline microalbuminuria) was −43%. The “UACR reduction during part 2” value ([2]; aprocitentan 25 mg, single-blind part 2) was “maintained; also recorded: sustained”, the “reduction in UACR” value ([2]; aprocitentan 25 mg, subjects with CKD stage 3-4) was −45% and the “reduction in UACR” value ([2]; aprocitentan 25 mg, subjects with baseline microalbuminuria) was −45%. For the same compound, the “antiproteinuric effect (UACR change)” value ([2]; patients with chronic kidney disease stage 3-4) was −46%, the “antiproteinuric effect (UACR change)” value ([2]; patients with eGFR of 60 mL/min per 1.73 m^2 or higher) was −26% and the antiproteinuric effect [2, 7] was “improved antiproteinuric effect”. The tolerability ([3]; across all four doses (5, 10, 25, 50 mg)) was “well tolerated”, the “cases of increased liver enzymes above three times the upper limit of the normal range” value ([3]; aprocitentan 5 mg group) was “one” and the “cases of peripheral edema” value ([3]; aprocitentan 25 mg group) was “two”. The “cases of peripheral edema” value ([3]; aprocitentan 50 mg group) was “two”, the “mean body weight change from baseline” value ([3]; aprocitentan 5 and (10) mg groups) was “remained unchanged” and the “mean body weight increase from baseline” value ([3]; aprocitentan 25 and 50 mg groups) was 0.4 kg. For the same compound, the clearance in vivo [4] was “much shorter”, the half-life in vivo [4] was “much longer” and the “difference 25 mg versus 12.5 mg in LS mean BP reduction with ABPM (night-time SBP)” value [5, 8] was “up to −5.90 mmHg”. The “further decrease in night-time SBP with 25 mg compared to 12.5 mg” value [5, 8] was greater than 100%, the “24 h ambulatory DBP, placebo-corrected decrease” value ([5]; aprocitentan 12.5 mg) was −4.3 mm Hg and the “24 h ambulatory SBP, placebo-corrected decrease” value ([5]; aprocitentan 12.5 mg) was −4.2 mm Hg. For the same compound, the “placebo-corrected SBP lowering effect during the daytime” value ([5]; aprocitentan 12.5 mg, week 4) was −3.8 mm Hg, the “placebo-corrected SBP lowering effect during the night time” value ([5]; aprocitentan 12.5 mg, week 4) was −5.1 mm Hg and the “24 h ambulatory DBP, placebo-corrected decrease” value ([5]; aprocitentan 25 mg) was −5.8 mm Hg. For the same compound, the “24 h ambulatory SBP, placebo-corrected decrease” value ([5]; aprocitentan 25 mg) was −5.9 mm Hg, the “placebo-corrected SBP lowering effect during the daytime” value ([5]; aprocitentan 25 mg, week 4) was −5.3 mm Hg and the “24 h ambulatory DBP increase with placebo compared with aprocitentan” value [5, 9] was 6.8 mm Hg. The “24 h ambulatory SBP increase with placebo compared with aprocitentan” value [5, 9] was 6.5 mm Hg, the “pharmacological effect in combination with ACE inhibitors such as enalapril” value ([6]; in certain models) was “synergistic” and the “pharmacological effect in combination with angiotensin receptor blockers such as valsartan” value ([6]; rat, in vivo) was “synergistic”. The “pharmacological effect in combination with calcium channel blockers such as amlodipine” value ([6]; rat, in vivo) was “additive”.
